Reference: a compilation of properties of binary mixtures (doi:10.1016/j.jct.2022.106923)

Assay: xn = mol fraction of the nth substance listed
Details: 101.3 kPa

CO + CC[n+]1ccn(C)c1C.F[B-](F)(F)F
x2 = 0
Details	viscosity [mPa·s]
293.15 K	0.57
298.15 K	0.532
303.15 K	0.498
313.15 K	0.439
318.15 K	0.414
323.15 K	0.39
328.15 K	0.37
333.15 K	0.351

CC[n+]1ccn(C)c1C.F[B-](F)(F)F + CO
viscosity [mPa·s]
Details	293.15 K	298.15 K	303.15 K	308.15 K	313.15 K	318.15 K	323.15 K	328.15 K	333.15 K
x1 = 0.0165	0.863	0.803	0.75	0.701	0.658	0.619	0.583	0.55	0.522
x1 = 0.0364	0.999	0.925	–	0.801	0.752	0.706	–	0.626	0.59
x1 = 0.0608	1.27	1.177	1.096	–	0.953	0.893	0.839	0.79	0.749
x1 = 0.0915	1.45	–	1.26	–	1.086	1.012	–	–	0.816
x1 = 0.1313	–	1.77	–	–	1.4	1.3	–	–	–
x1 = 0.1848	2.75	2.5	2.28	2.09	–	1.77	1.63	1.52	–
x1 = 0.2607	4.43	–	3.6	3.28	2.99	2.74	2.54	2.34	2.17
x1 = 0.3768	9.29	8.18	7.17	6.85	6.15	–	5.01	–	4.13
